Test results as given in ChEMBL document CHEMBL4804286, “3-amino-4-(4-(4 (dimethylcarbamoyl) phenyl)-1,4-diazepan-1-yl) thieno [2,3-b] pyridine-2-carboxamide for use in cancer therapy and formulations comprising the same” (2020).
Values joined by “and” are separate entries in the source; they are usually repeats but may differ in a detail not shown here. Equal values may be shown once.

Assays:
[1] = test system: Tyrosine-protein kinase ABL1 (Homo sapiens), P00519 [Y253F]; assay: Inhibition of phosphorylated human ABL1 Y253F mutant assessed as percent of control at 2000 nM by KINOMEscan assay relative to control; parameters: scale not given: the % may be the effect or the level left
[2] = molecular target: Activin receptor type-2B (Homo sapiens) (UniProt Q13705); assay: Inhibition of human ACVR2B assessed as percent of control at 2000 nM by KINOMEscan assay relative to control; parameters: scale not given: the % may be the effect or the level left
Sequence of Activin receptor type-2B (Homo sapiens) (Q13705 whole entry): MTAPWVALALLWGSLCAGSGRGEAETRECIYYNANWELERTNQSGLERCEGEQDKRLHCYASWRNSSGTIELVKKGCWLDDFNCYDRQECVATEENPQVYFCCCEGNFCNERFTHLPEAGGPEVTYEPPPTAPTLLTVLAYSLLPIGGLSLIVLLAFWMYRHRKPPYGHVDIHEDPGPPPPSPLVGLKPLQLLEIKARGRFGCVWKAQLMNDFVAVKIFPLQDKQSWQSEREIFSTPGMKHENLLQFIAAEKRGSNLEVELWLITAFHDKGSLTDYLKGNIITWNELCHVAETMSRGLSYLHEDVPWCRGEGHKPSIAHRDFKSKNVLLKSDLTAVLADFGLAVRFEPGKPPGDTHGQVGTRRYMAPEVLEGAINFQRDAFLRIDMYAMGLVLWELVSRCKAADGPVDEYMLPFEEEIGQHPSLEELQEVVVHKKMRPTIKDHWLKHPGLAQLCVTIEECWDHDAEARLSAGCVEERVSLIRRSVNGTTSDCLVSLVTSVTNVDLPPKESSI

[3] = molecular target: 5'-AMP-activated protein kinase catalytic subunit alpha-2 (Homo sapiens) (UniProt P54646); assay: Inhibition of human AMPK-alpha2 assessed as percent of control at 2000 nM by KINOMEscan assay relative to control; parameters: scale not given: the % may be the effect or the level left
[4] = molecular target: Aurora kinase A (Homo sapiens) (UniProt O14965); assay: Inhibition of human AURKA assessed as percent of control at 2000 nM by KINOMEscan assay relative to control; parameters: scale not given: the % may be the effect or the level left
Sequence of Aurora kinase A (Homo sapiens) (O14965 whole entry): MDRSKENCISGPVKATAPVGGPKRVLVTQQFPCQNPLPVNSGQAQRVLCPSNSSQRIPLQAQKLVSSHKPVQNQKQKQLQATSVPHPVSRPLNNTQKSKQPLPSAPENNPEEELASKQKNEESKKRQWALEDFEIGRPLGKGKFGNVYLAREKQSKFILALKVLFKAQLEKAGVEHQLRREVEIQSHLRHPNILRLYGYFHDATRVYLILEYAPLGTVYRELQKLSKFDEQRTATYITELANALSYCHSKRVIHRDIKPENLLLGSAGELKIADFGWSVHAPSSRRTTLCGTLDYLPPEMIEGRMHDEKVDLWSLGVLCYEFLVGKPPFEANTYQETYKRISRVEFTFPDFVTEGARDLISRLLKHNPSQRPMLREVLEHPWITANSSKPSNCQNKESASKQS

[5] = molecular target: Tyrosine-protein kinase Blk (Homo sapiens) (UniProt P51451); assay: Inhibition of human BLK assessed as percent of control at 2000 nM by KINOMEscan assay relative to control; parameters: scale not given: the % may be the effect or the level left
[6] = molecular target: Calcium/calmodulin-dependent protein kinase type II subunit delta (Homo sapiens) (UniProt Q13557); assay: Inhibition of human CAMK2D assessed as percent of control at 2000 nM by KINOMEscan assay relative to control; parameters: scale not given: the % may be the effect or the level left
Sequence of Calcium/calmodulin-dependent protein kinase type II subunit delta (Homo sapiens) (Q13557 whole entry): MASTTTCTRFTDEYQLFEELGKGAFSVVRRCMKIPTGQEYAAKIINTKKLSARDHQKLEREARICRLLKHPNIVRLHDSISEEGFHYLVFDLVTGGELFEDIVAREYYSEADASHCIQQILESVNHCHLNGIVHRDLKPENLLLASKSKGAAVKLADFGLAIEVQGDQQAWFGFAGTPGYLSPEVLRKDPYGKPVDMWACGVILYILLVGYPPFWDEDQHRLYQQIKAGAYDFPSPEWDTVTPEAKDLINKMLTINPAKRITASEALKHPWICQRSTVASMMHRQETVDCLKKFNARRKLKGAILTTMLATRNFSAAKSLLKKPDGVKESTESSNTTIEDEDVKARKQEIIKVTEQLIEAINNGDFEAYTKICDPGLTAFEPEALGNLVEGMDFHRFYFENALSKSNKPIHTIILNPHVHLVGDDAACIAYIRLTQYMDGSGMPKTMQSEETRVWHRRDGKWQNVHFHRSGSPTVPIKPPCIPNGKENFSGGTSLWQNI

[7] = molecular target: Cyclin-dependent kinase 2 (Homo sapiens) (UniProt P24941); assay: Inhibition of human CDK2 assessed as percent of control at 2000 nM by KINOMEscan assay relative to control; parameters: scale not given: the % may be the effect or the level left
[8] = molecular target: Citron Rho-interacting kinase (Homo sapiens) (UniProt O14578); assay: Inhibition of human CIT assessed as percent of control at 2000 nM by KINOMEscan assay relative to control; parameters: scale not given: the % may be the effect or the level left
[9] = molecular target: Dual specificity protein kinase CLK2 (Homo sapiens) (UniProt P49760); assay: Inhibition of human CLK2 assessed as percent of control at 2000 nM by KINOMEscan assay relative to control; parameters: scale not given: the % may be the effect or the level left
Sequence of Dual specificity protein kinase CLK2 (Homo sapiens) (P49760 whole entry, looked up): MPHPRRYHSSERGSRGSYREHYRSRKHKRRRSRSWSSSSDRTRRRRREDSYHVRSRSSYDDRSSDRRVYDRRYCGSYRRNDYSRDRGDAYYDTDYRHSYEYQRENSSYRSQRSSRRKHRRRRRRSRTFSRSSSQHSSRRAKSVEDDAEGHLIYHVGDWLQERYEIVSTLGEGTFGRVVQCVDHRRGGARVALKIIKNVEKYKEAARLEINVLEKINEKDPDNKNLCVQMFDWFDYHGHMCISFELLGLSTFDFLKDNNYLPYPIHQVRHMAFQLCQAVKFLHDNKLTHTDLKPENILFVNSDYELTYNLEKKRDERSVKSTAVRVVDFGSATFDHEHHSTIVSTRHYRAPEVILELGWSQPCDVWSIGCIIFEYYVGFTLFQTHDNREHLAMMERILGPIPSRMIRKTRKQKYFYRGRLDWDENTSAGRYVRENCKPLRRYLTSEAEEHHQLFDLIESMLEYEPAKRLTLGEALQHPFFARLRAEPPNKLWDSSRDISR

[10] = molecular target: Dual specificity protein kinase CLK3 (Homo sapiens) (UniProt P49761); assay: Inhibition of human CLK3 assessed as percent of control at 2000 nM by KINOMEscan assay relative to control; parameters: scale not given: the % may be the effect or the level left
[11] = molecular target: Casein kinase I isoform gamma-1 (Homo sapiens) (UniProt Q9HCP0); assay: Inhibition of human CSNK1G1 assessed as percent of control at 2000 nM by KINOMEscan assay relative to control; parameters: scale not given: the % may be the effect or the level left
[12] = molecular target: Casein kinase I isoform gamma-2 (Homo sapiens) (UniProt P78368); assay: Inhibition of human CSNK1G2 assessed as percent of control at 2000 nM by KINOMEscan assay relative to control; parameters: scale not given: the % may be the effect or the level left
[13] = molecular target: Epithelial discoidin domain-containing receptor 1 (Homo sapiens) (UniProt Q08345); assay: Inhibition of human DDR1 assessed as percent of control at 2000 nM by KINOMEscan assay relative to control; parameters: scale not given: the % may be the effect or the level left
[14] = molecular target: Serine/threonine-protein kinase 17B (Homo sapiens) (UniProt O94768); assay: Inhibition of human DRAK2 assessed as percent of control at 2000 nM by KINOMEscan assay relative to control; parameters: scale not given: the % may be the effect or the level left
Sequence of Serine/threonine-protein kinase 17B (Homo sapiens) (O94768 whole entry): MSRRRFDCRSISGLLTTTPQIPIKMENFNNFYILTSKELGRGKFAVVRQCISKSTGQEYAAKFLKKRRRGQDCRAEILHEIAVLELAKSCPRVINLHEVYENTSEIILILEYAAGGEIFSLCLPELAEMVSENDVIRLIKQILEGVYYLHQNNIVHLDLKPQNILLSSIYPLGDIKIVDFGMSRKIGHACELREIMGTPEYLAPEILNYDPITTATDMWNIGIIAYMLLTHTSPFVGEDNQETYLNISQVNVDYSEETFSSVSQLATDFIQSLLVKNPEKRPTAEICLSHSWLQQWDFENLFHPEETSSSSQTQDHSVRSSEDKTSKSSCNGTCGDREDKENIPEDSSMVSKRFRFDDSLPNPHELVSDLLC

[15] = test system: Receptor-type tyrosine-protein kinase FLT3 (Homo sapiens), P36888 [UNDEFINED MUTATION]; assay: Inhibition of human FLT3 ITD/D835V double mutant assessed as percent of control at 2000 nM by KINOMEscan assay relative to control; parameters: scale not given: the % may be the effect or the level left; conditions: INHIBITOR
[16] = molecular target: Tyrosine-protein kinase JAK1 (Homo sapiens) (UniProt P23458); assay: Inhibition of human JAK1 JH1 catalytic domain assessed as percent of control at 2000 nM by KINOMEscan assay relative to control; parameters: scale not given: the % may be the effect or the level left
Sequence of Tyrosine-protein kinase JAK1 (Homo sapiens) (P23458 whole entry, the tested form may be a part): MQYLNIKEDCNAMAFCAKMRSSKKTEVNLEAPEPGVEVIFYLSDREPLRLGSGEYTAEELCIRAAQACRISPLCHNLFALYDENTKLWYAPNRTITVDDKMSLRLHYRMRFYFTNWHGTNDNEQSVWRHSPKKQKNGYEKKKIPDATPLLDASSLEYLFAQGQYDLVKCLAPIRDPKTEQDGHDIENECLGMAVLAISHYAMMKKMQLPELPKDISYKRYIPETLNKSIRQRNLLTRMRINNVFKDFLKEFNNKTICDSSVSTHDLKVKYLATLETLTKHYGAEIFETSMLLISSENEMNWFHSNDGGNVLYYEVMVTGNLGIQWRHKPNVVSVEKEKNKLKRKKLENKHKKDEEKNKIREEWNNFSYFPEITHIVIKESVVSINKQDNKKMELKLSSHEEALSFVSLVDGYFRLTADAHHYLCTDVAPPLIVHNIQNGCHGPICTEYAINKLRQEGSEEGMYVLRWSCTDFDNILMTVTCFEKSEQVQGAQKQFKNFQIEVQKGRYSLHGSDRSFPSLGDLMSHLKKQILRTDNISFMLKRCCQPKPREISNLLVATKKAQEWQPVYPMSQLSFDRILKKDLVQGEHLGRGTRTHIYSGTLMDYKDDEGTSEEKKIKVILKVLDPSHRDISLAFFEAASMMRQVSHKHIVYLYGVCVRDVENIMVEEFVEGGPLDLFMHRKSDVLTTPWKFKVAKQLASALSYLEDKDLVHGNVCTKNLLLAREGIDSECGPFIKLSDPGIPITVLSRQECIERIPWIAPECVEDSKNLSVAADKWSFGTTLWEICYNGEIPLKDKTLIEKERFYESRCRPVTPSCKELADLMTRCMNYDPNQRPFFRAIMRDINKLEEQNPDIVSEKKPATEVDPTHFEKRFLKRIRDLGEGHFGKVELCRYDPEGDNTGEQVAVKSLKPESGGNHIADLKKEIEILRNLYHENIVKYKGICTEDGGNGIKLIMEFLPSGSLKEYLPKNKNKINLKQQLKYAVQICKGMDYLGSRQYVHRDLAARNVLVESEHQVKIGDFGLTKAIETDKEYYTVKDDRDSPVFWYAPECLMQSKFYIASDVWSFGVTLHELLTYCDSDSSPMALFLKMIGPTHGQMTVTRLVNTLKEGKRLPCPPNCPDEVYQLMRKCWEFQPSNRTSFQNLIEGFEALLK

[17] = molecular target: Tyrosine-protein kinase JAK1 (Homo sapiens) (UniProt P23458); assay: Inhibition of human JAK1 JH2 pseudokinase domain assessed as percent of control at 2000 nM by KINOMEscan assay relative to control; parameters: scale not given: the % may be the effect or the level left
[18] = molecular target: Mitogen-activated protein kinase kinase kinase 13 (Homo sapiens) (UniProt O43283); assay: Inhibition of human LZK assessed as percent of control at 2000 nM by KINOMEscan assay relative to control; parameters: scale not given: the % may be the effect or the level left
[19] = molecular target: Serine/threonine-protein kinase MARK1 (Homo sapiens) (UniProt Q9P0L2); assay: Inhibition of human MARK1 assessed as percent of control at 2000 nM by KINOMEscan assay relative to control; parameters: scale not given: the % may be the effect or the level left
[20] = molecular target: Maternal embryonic leucine zipper kinase (Homo sapiens) (UniProt Q14680); assay: Inhibition of human MELK assessed as percent of control at 2000 nM by KINOMEscan assay relative to control; parameters: scale not given: the % may be the effect or the level left
[21] = molecular target: Misshapen-like kinase 1 (Homo sapiens) (UniProt Q8N4C8); assay: Inhibition of human MINK assessed as percent of control at 2000 nM by KINOMEscan assay relative to control; parameters: scale not given: the % may be the effect or the level left
[22] = molecular target: Serine/threonine-protein kinase 24 (Homo sapiens) (UniProt Q9Y6E0); assay: Inhibition of human MST3 assessed as percent of control at 2000 nM by KINOMEscan assay relative to control; parameters: scale not given: the % may be the effect or the level left
Sequence of Serine/threonine-protein kinase 24 (Homo sapiens) (Q9Y6E0 whole entry, looked up): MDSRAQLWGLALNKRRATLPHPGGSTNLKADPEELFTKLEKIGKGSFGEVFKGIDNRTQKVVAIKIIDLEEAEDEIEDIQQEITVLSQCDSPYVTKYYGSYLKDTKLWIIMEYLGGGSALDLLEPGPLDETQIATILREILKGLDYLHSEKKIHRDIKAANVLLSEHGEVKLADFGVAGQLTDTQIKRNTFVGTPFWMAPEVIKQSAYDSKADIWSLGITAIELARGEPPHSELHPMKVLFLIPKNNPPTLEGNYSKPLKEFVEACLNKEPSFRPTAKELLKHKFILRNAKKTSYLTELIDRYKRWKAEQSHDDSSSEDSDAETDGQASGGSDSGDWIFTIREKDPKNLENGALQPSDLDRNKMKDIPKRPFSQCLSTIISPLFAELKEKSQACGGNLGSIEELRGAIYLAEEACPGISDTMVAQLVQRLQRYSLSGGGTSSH

[23] = molecular target: Mitogen-activated protein kinase 14 (Homo sapiens) (UniProt Q16539); assay: Inhibition of human p38-alpha assessed as percent of control at 2000 nM by KINOMEscan assay relative to control; parameters: scale not given: the % may be the effect or the level left
[24] = molecular target: Platelet-derived growth factor receptor alpha (Homo sapiens) (UniProt P16234); assay: Inhibition of human PDGFRA assessed as percent of control at 2000 nM by KINOMEscan assay relative to control; parameters: scale not given: the % may be the effect or the level left
[25] = molecular target: Phosphatidylinositol 4-phosphate 3-kinase C2 domain-containing subunit beta (Homo sapiens) (UniProt O00750); assay: Inhibition of human PIK3C2B assessed as percent of control at 2000 nM by KINOMEscan assay relative to control; parameters: scale not given: the % may be the effect or the level left
[26] = test system: Phosphatidylinositol 4,5-bisphosphate 3-kinase catalytic subunit alpha isoform (Homo sapiens), P42336 [C420R]; assay: Inhibition of human PIK3CA C420R mutant assessed as percent of control at 2000 nM by KINOMEscan assay relative to control; parameters: scale not given: the % may be the effect or the level left
Sequence of Phosphatidylinositol 4,5-bisphosphate 3-kinase catalytic subunit alpha isoform (Homo sapiens), P42336 [C420R] (P42336 whole entry C420R, canonical isoform): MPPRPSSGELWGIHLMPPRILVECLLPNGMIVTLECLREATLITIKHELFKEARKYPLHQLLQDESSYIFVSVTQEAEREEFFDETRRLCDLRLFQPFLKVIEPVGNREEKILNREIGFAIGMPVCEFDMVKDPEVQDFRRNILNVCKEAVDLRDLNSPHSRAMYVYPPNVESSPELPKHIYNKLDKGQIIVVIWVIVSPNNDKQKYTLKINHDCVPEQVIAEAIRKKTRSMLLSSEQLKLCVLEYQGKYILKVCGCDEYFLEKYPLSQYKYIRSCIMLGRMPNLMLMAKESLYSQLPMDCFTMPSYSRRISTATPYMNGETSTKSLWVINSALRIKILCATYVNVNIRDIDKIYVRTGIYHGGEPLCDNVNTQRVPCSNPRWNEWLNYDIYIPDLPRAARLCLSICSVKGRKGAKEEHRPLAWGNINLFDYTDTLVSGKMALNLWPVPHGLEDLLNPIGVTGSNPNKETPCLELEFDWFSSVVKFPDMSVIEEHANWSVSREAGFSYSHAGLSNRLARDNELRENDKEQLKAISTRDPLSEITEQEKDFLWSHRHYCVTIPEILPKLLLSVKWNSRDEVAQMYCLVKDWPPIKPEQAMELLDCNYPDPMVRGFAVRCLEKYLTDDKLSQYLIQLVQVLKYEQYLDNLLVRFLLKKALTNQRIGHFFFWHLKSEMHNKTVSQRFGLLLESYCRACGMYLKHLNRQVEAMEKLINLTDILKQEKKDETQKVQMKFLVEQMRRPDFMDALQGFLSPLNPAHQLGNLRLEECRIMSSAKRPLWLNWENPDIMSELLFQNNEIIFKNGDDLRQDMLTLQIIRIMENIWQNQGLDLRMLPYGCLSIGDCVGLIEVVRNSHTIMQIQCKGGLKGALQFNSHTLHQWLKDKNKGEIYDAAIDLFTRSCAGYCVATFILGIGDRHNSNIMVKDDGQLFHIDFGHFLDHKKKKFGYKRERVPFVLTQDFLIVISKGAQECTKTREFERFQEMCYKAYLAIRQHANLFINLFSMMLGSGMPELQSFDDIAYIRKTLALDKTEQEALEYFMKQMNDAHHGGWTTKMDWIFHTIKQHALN

[27] = test system: Phosphatidylinositol 4,5-bisphosphate 3-kinase catalytic subunit alpha isoform (Homo sapiens), P42336 [I800L]; assay: Inhibition of human PIK3CA I800L mutant assessed as percent of control at 2000 nM by KINOMEscan assay relative to control; parameters: scale not given: the % may be the effect or the level left
[28] = molecular target: Receptor-interacting serine/threonine-protein kinase 1 (Homo sapiens) (UniProt Q13546); assay: Inhibition of human RIPK1 assessed as percent of control at 2000 nM by KINOMEscan assay relative to control; parameters: scale not given: the % may be the effect or the level left
[29] = molecular target: Transient receptor potential cation channel subfamily M member 6 (Homo sapiens) (UniProt Q9BX84); assay: Inhibition of human TRPM6 assessed as percent of control at 2000 nM by KINOMEscan assay relative to control; parameters: scale not given: the % may be the effect or the level left
[30] = molecular target: Wee1-like protein kinase (Homo sapiens) (UniProt P30291); assay: Inhibition of human WEE1 assessed as percent of control at 2000 nM by KINOMEscan assay relative to control; parameters: scale not given: the % may be the effect or the level left
[31] = molecular target: Cyclin-dependent kinase 8 (Homo sapiens) (UniProt P49336); conditions: INHIBITOR, dose 2000.0 nM
Description: Inhibition of human CDK8 at 2000 nM by KINOMEscan assay

CN(C)C(=O)c1ccc(N2CCCN(c3ccnc4sc(C(N)=O)c(N)c34)CC2)cc1
Activity [1]: 100% and 81%
Activity [2]: 100% and 86%
Activity [3]: 80% and 95%
Activity [4]: 98% and 99%
Activity [5]: 100% and 92%
Activity [6]: 99% and 92%
Activity [7]: 100% and 99%
Activity [8]: 51% and 65%
Activity [9]: 75% and 83%
Activity [10]: 100% and 95%
Activity [11]: 90% and 80%
Activity [12]: 77% and 69%
Activity [13]: 82% and 90%
Activity [14]: 100% and 87%
Activity [15]: 41% and 34%
Activity [16]: 57% and 82%
Activity [17]: 89%
Activity [18]: 100% and 87%
Activity [19]: 100%
Activity [20]: 75% and 84%
Activity [21]: 100% and 87%
Activity [22]: 97% and 84%
Activity [23]: 93% and 99%
Activity [24]: 70% and 65%
Activity [25]: 89% and 87%
Activity [26]: 100% and 86%
Activity [27]: 97% and 74%
Activity [28]: 99% and 100%
Activity [29]: 100% and 80%
Activity [30]: 100% and 88%
inhibition [31]: > 65%
